Tests used:
Experiment in all cases: relative viability (nuclei count vs DMSO), 5 days (fraction); higher = more cells survive
Tipifarnib + Decitabine = compound: Cn1cncc1[C@@](N)(c1ccc(Cl)cc1)c1ccc2c(c1)c(-c1cccc(Cl)c1)cc(=O)n2C [Tipifarnib] + Nc1ncn([C@H]2C[C@H](O)[C@@H](CO)O2)c(=O)n1 [Decitabine] (partner 2 µM)
Outline: (§1)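 Relative viability is defined as nuclei in treated wells over nuclei in vehicle wells. Duplicate plates were run and medians reported. Lung cancer cell lines in 1536-well plates were dosed by pin tool one day after seeding, with one drug or with a fixed anchor-drug dose plus five library-drug doses (not always all listed) in √10 steps, and nuclei were counted after 5 days.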

Tipifarnib + Bortezomib = compound: Cn1cncc1[C@@](N)(c1ccc(Cl)cc1)c1ccc2c(c1)c(-c1cccc(Cl)c1)cc(=O)n2C [Tipifarnib] + CC(C)C[C@H](NC(=O)[C@H](Cc1ccccc1)NC(=O)c1cnccn1)B(O)O [Bortezomib] (partner 0.002 µM)
Outline: as §1

Tipifarnib + Tozasertib = compound: Cn1cncc1[C@@](N)(c1ccc(Cl)cc1)c1ccc2c(c1)c(-c1cccc(Cl)c1)cc(=O)n2C [Tipifarnib] + Cc1cc(Nc2cc(N3CCN(C)CC3)nc(Sc3ccc(NC(=O)C4CC4)cc3)n2)n[nH]1 [Tozasertib] (partner 0.1 µM)
Outline: as §1

Tipifarnib + AZD7762 = compound: Cn1cncc1[C@@](N)(c1ccc(Cl)cc1)c1ccc2c(c1)c(-c1cccc(Cl)c1)cc(=O)n2C [Tipifarnib] + NC(=O)Nc1cc(-c2cccc(F)c2)sc1C(=O)N[C@H]1CCCNC1 [AZD7762] (partner 0.2 µM)
Outline: as §1

Cell Line | relative viability (Tipifarnib + Decitabine; first compound 0.01 µM) | relative viability (Tipifarnib + Decitabine; first compound 0.03162 µM) | relative viability (Tipifarnib + Decitabine; first compound 0.1 µM) | relative viability (Tipifarnib + Decitabine; first compound 0.3162 µM) | relative viability (Tipifarnib + Decitabine; first compound 1 µM) | relative viability (Tipifarnib + Bortezomib; first compound 0.01 µM) | relative viability (Tipifarnib + Bortezomib; first compound 0.03162 µM) | relative viability (Tipifarnib + Bortezomib; first compound 0.1 µM) | relative viability (Tipifarnib + Bortezomib; first compound 0.3162 µM) | relative viability (Tipifarnib + Bortezomib; first compound 1 µM) | relative viability (Tipifarnib + Tozasertib; first compound 0.01 µM) | relative viability (Tipifarnib + Tozasertib; first compound 0.03162 µM) | relative viability (Tipifarnib + Tozasertib; first compound 0.1 µM) | relative viability (Tipifarnib + Tozasertib; first compound 0.3162 µM) | relative viability (Tipifarnib + Tozasertib; first compound 1 µM) | relative viability (Tipifarnib + AZD7762; first compound 0.01 µM) | relative viability (Tipifarnib + AZD7762; first compound 0.03162 µM) | relative viability (Tipifarnib + AZD7762; first compound 0.1 µM) | relative viability (Tipifarnib + AZD7762; first compound 0.3162 µM) | relative viability (Tipifarnib + AZD7762; first compound 1 µM)
NCI-H661 | 0.646 | 0.564 | 0.525 | 0.503 | 0.531 | 0.967 | 0.818 | 0.569 | 0.598 | 0.744 | 0.355 | 0.347 | 0.337 | 0.34 | 0.347 |  |  |  |  | 
NCI-H1944 | 0.421 | 0.452 | 0.413 | 0.346 | 0.404 |  |  |  |  |  | 0.257 | 0.256 | 0.236 | 0.25 | 0.236 | 0.515 | 0.435 | 0.295 | 0.299 | 0.306
SW 1573 | 0.6 | 0.411 | 0.322 | 0.33 | 0.268 | 1.13 | 0.752 | 0.691 | 0.45 | 0.49 | 0.177 | 0.179 | 0.145 | 0.142 | 0.176 |  |  |  |  | 
COR-L 105 | 0.635 | 0.636 | 0.478 | 0.479 | 0.473 | 0.869 | 0.591 | 0.706 | 0.444 | 0.403 | 0.333 | 0.356 | 0.281 | 0.305 | 0.294 |  |  |  |  | 
EBC-1 |  |  |  |  |  | 0.46 | 0.356 | 0.359 | 0.295 | 0.309 |  |  |  |  |  |  |  |  |  | 
SK-LU-1 | 0.728 | 0.627 | 0.706 | 0.594 | 0.59 | 1.12 | 0.508 | 0.626 | 0.614 | 0.36 | 0.305 | 0.302 | 0.311 | 0.248 | 0.265 |  |  |  |  | 
NCI-H1648 | 0.603 | 0.48 | 0.608 | 0.51 | 0.338 |  |  |  |  |  | 0.368 | 0.479 | 0.285 | 0.483 | 0.352 | 0.625 | 0.535 | 0.681 | 0.551 | 0.341
SW 900 | 0.387 | 0.39 | 0.294 | 0.368 | 0.402 |  |  |  |  |  | 0.335 | 0.261 | 0.289 | 0.31 | 0.273 | 0.464 | 0.372 | 0.331 | 0.292 | 0.259
NCI-H520 | 0.583 | 0.469 | 0.627 | 0.401 | 0.424 | 0.506 | 0.203 | 0.636 | 0.246 | 0.173 | 0.404 | 0.4 | 0.348 | 0.335 | 0.336 |  |  |  |  | 
UMC-11 | 0.569 | 0.53 | 0.524 | 0.322 | 0.405 | 0.667 | 0.498 | 0.465 | 0.447 | 0.242 | 0.19 | 0.193 | 0.194 | 0.181 | 0.177 |  |  |  |  | 
NCI-H1792 | 0.446 | 0.439 | 0.308 | 0.28 | 0.272 | 0.967 | 0.877 | 0.661 | 0.621 | 0.432 |  |  |  |  |  | 0.722 | 0.417 | 0.373 | 0.237 | 0.173
NCI-H1793 | 0.555 | 0.427 | 0.374 | 0.338 | 0.365 |  |  |  |  |  | 0.286 | 0.284 | 0.248 | 0.247 | 0.265 | 0.605 | 0.426 | 0.379 | 0.302 | 0.2
NCI-H1563 |  |  |  |  |  | 0.996 | 0.881 | 0.87 | 0.871 | 0.748 |  |  |  |  |  |  |  |  |  | 
NCI-H1395 | 0.7 | 0.674 | 0.59 | 0.626 | 0.654 |  |  |  |  |  | 0.659 | 0.681 | 0.567 | 0.498 | 0.556 | 0.363 | 0.367 | 0.398 | 0.375 | 0.329
NCI-H1299 |  |  |  |  |  | 0.988 | 0.954 | 0.929 | 0.847 | 0.816 |  |  |  |  |  |  |  |  |  | 
NCI-H2228 |  |  |  |  |  | 1.2 | 0.615 | 0.727 | 0.577 | 0.404 | 0.24 | 0.164 | 0.223 | 0.174 | 0.235 |  |  |  |  | 
NCI-H2170 | 0.533 | 0.441 | 0.465 | 0.43 | 0.412 |  |  |  |  |  | 0.839 | 0.718 | 0.456 | 0.501 | 0.47 | 0.98 | 0.885 | 0.701 | 0.644 | 0.506
NCI-H522 | 0.657 | 0.725 | 0.582 | 0.586 | 0.592 |  |  |  |  |  | 0.517 | 0.564 | 0.525 | 0.542 | 0.566 | 0.925 | 1.03 | 0.875 | 0.754 | 0.662
A549 | 0.243 | 0.32 | 0.143 | 0.124 | 0.0674 |  |  |  |  |  |  |  |  |  |  |  |  |  |  | 
NCI-H358 | 0.202 | 0.203 | 0.243 | 0.278 | 0.183 |  |  |  |  |  | 0.117 | 0.123 | 0.104 | 0.104 | 0.11 | 0.563 | 0.511 | 0.575 | 0.382 | 0.378
CAL-12T |  |  |  |  |  | 0.791 | 0.75 | 0.714 | 0.719 | 0.318 | 0.277 | 0.278 | 0.241 | 0.188 | 0.246 | 0.635 | 0.549 | 0.62 | 0.408 | 0.425
COR-L23 | 0.526 | 0.329 | 0.375 | 0.347 | 0.288 | 0.914 | 0.647 | 0.708 | 0.501 | 0.486 | 0.213 | 0.175 | 0.232 | 0.146 | 0.15 |  |  |  |  | 
IA-LM |  |  |  |  |  | 0.354 | 0.407 | 0.28 | 0.292 | 0.265 |  |  |  |  |  |  |  |  |  | 
NCI-H1650 | 0.307 | 0.298 | 0.309 | 0.357 | 0.304 | 0.224 | 0.204 | 0.202 | 0.209 | 0.191 | 0.267 | 0.283 | 0.241 | 0.205 | 0.326 |  |  |  |  | 
Calu-6 |  |  |  |  |  | 0.928 | 0.662 | 0.634 | 0.529 | 0.544 |  |  |  |  |  |  |  |  |  | 

Source: the supplement of paper PMC10307832
